The target of one test is KRAS G12C (Homo sapiens, UniProt P01116, G12C). The test can be described thus: GDP-GTP exchange assay (KRAS_G12C exchange). Type of test: biochemical. The following applies: bodipy-GDP loaded KRAS G12C 2.5 nM, SOS1 150 nM, GppNHp; 2 hours pre-incubation, 2 hours reaction; read-out: G12C_exchange. An outline of the steps:
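Fluorescence exchange of bodipy-GDP for GppNHp, SOS1-driven, read at 485/520 nm; IC50 from four-parameter variable-slope fit. Both mutants used 2.5 nM final labelled protein and a 2 h compound pre-incubation. G12C reaction had 500 uM GppNHp and 150 nM SOS1 for 2 h; G12D ran 4 h.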

The test system of test [1] is MIA PaCa-2 (KRAS G12C) cells. The test is described as follows: Cellular pERK HTRF assay (KRAS_G12C pERK). Type of test: cell-based, human. The following applies: Homo sapiens, MIA PaCa-2, 4 hours incubation, read-out: G12C_pERK. The method, boiled down: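 Phospho-ERK1/2 HTRF readout (665 and 620 nm) in lysed MIA PaCa-2 cells, antibodies incubated overnight at room temperature. Cells seeded the day before and treated with G12C compounds for 4 h at 37 °C; IC50 fitted to percent inhibition against log inhibitor concentration.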
(In general: TR-FRET usually uses a lanthanide donor and a delayed reading to cut background.)

KRAS G12C, sequence (P01116 1-188 isoform P01116-2 G12C): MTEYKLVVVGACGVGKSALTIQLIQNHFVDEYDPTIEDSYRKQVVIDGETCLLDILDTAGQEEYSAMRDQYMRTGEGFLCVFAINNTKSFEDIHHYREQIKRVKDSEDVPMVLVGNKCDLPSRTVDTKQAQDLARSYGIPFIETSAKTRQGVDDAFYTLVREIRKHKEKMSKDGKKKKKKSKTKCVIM

In the case of `CC#CC(=O)N1CC[C@H](n2cnc3c(N4CC5(CCCN5C)C4)nc4c(F)c(-c5c(C)c(Cl)cc6[nH]ncc56)c(Cl)cc4c32)C[C@H]1CC#N` [Example 83a, 2-((2S,4S)-1-(but-2-ynoyl)-4-(8-chloro-7-(6-chloro-5-methyl-1H-indazol-4-yl)-6-fluoro-4-(5-methyl-2,5-diazaspiro[3.4]octan-2-yl)-1H-imidazo[4,5-c]quinolin-1-yl)piperidin-2-yl)acetonitrile], the IC50 (on KRAS G12C; in test [1]) was at most 0.1 µM each time.

With `COC/C=C/C(=O)N1CC[C@H](n2cnc3c(N4CC5(CCCN5C)C4)nc4c(F)c(-c5c(C)c(Cl)cc6[nH]ncc56)c(Cl)cc4c32)C[C@H]1CC#N` [Example 84a, 2-((2S,4S)-4-(8-chloro-7-(6-chloro-5-methyl-1H-indazol-4-yl)-6-fluoro-4-(5-methyl-2,5-diazaspiro[3.4]octan-2-yl)-1H-imidazo[4,5-c]quinolin-1-yl)-1-((E)-4-methoxybut-2-enoyl)piperidin-2-yl)acetonitrile], the IC50 (at KRAS G12C; in test [1]) was at most 0.1 µM each time.

As to `C=CC(=O)N1CC[C@H](n2nnc3c(OC[C@@H]4CCCN4C)nc4c(F)c(-c5ccc(F)c(Cl)c5)c(Cl)cc4c32)C[C@H]1CC#N` [Example 85, 2-((2S,4S)-1-acryloyl-4-(8-chloro-7-(3-chloro-4-fluorophenyl)-6-fluoro-4-(((S)-1-methylpyrrolidin-2-yl)methoxy)-1H-[1,2,3]triazolo[4,5-c]quinolin-1-yl)piperidin-2-yl)acetonitrile], the IC50 (at KRAS G12C; in test [1]) was at most 0.1 µM each time.

As to `C=CC(=O)N1CC[C@H](n2nnc3c(OC[C@@H]4CCCN4C)nc4c(F)c(-c5cccc(Cl)c5C)c(Cl)cc4c32)C[C@H]1CC#N` [Example 86, 2-((2S,4S)-1-acryloyl-4-(8-chloro-7-(3-chloro-2-methylphenyl)-6-fluoro-4-(((S)-1-methylpyrrolidin-2-yl)methoxy)-1H-[1,2,3]triazolo[4,5-c]quinolin-1-yl)piperidin-2-yl)acetonitrile], the IC50 (at KRAS G12C; in test [1]) was at most 0.1 µM throughout.

For the compound `Cc1c(Cl)cccc1-c1c(Cl)cc2c(nc(OC[C@@H]3CCCN3C)c3nnn([C@H]4CCN(C(=O)/C=C/CN(C)C)[C@H](CC#N)C4)c32)c1F` [Example 88, 2-((2S,4S)-4-(8-chloro-7-(3-chloro-2-methylphenyl)-6-fluoro-4-(((S)-1-methylpyrrolidin-2-yl)methoxy)-1H-[1,2,3]triazolo[4,5-c]quinolin-1-yl)-1-((E)-4-(dimethylamino)but-2-enoyl)piperidin-2-yl)acetonitrile], the IC50 (on KRAS G12C; in test [1]) was at most 0.1 µM each time.

Regarding `C=CC(=O)N1CC[C@H](n2cnc3c(N4CC(N(C)C)C4)nc4c(F)c(-c5cncc(Cl)c5C)c(Cl)cc4c32)C[C@H]1CC#N` [Example 89, 2-((2S,4S)-1-acryloyl-4-(8-chloro-7-(5-chloro-4-methylpyridin-3-yl)-4-(3-(dimethylamino)azetidin-1-yl)-6-fluoro-1H-imidazo[4,5-c]quinolin-1-yl)piperidin-2-yl)acetonitrile], the IC50 (at KRAS G12C; in test [1]) was at most 0.1 µM throughout.

As to `C=CC(=O)N1CC[C@H](n2cnc3c(N4CC(N(C)C)C4)nc4c(F)c(-c5c(OC)ncc(Cl)c5C)c(Cl)cc4c32)C[C@H]1CC#N` [Example 90, 2-((2S,4S)-1-acryloyl-4-(8-chloro-7-(5-chloro-2-methoxy-4-methylpyridin-3-yl)-4-(3-(dimethylamino)azetidin-1-yl)-6-fluoro-1H-imidazo[4,5-c]quinolin-1-yl)piperidin-2-yl)acetonitrile], the IC50 (at KRAS G12C; in test [1]) was at most 0.1 µM in each case.

On to `CC#CC(=O)N1CC[C@H](n2nnc3c(N4CCOCC4=O)nc4c(F)c(-c5cccc(Cl)c5C)c(Cl)cc4c32)C[C@H]1CC#N` [Example 91, 2-((2S,4S)-1-(but-2-ynoyl)-4-(8-chloro-7-(3-chloro-2-methylphenyl)-6-fluoro-4-(3-oxomorpholino)-1H-[1,2,3]triazolo[4,5-c]quinolin-1-yl)piperidin-2-yl)acetonitrile], for which the IC50 (at KRAS G12C; in test [1]) was at most 0.1 µM throughout.

On to `CC#CC(=O)N1CC[C@H](n2nnc3c(N4CCN(C)CC4=O)nc4c(F)c(-c5cccc(Cl)c5C)c(Cl)cc4c32)C[C@H]1CC#N` [Example 92, 2-((2S,4S)-1-(but-2-ynoyl)-4-(8-chloro-7-(3-chloro-2-methylphenyl)-6-fluoro-4-(4-methyl-2-oxopiperazin-1-yl)-1H-[1,2,3]triazolo[4,5-c]quinolin-1-yl)piperidin-2-yl)acetonitrile], for which the IC50 (on KRAS G12C; in test [1]) was at most 0.1 µM in each case.

As for `CC#CC(=O)N1CC[C@H](n2nnc3c(N4CCCCC4=O)nc4c(F)c(-c5cccc(Cl)c5C)c(Cl)cc4c32)C[C@H]1CC#N` [Example 93, 2-((2S,4S)-1-(but-2-ynoyl)-4-(8-chloro-7-(3-chloro-2-methylphenyl)-6-fluoro-4-(2-oxopiperidin-1-yl)-1H-[1,2,3]triazolo[4,5-c]quinolin-1-yl)piperidin-2-yl)acetonitrile], the IC50 (on KRAS G12C; in test [1]) was at most 0.1 µM in each case.

For the compound `CC#CC(=O)N1CC[C@H](n2nnc3c(O[C@@H](C)CN(C)C)nc4c(F)c(-c5cccc(Cl)c5C)c(Cl)cc4c32)C[C@H]1CC#N` [Example 94, 2-((2S,4S)-1-(but-2-ynoyl)-4-(8-chloro-7-(3-chloro-2-methylphenyl)-4-(((S)-1-(dimethylamino)propan-2-yl)oxy)-6-fluoro-1H-[1,2,3]triazolo[4,5-c]quinolin-1-yl)piperidin-2-yl)acetonitrile], the IC50 (at KRAS G12C; in test [1]) was at most 0.1 µM in each case.

Turning to `C=CC(=O)N1CC[C@H](n2nnc3c(OC[C@@H]4CCCN4C)nc4c(F)c(-c5cccc(C#N)c5C)c(Cl)cc4c32)C[C@H]1CC#N` [Example 95, 3-(1-((2S,4S)-1-acryloyl-2-(cyanomethyl)piperidin-4-yl)-8-chloro-6-fluoro-4-(((S)-1-methylpyrrolidin-2-yl)methoxy)-1H-[1,2,3]triazolo[4,5-c]quinolin-7-yl)-2-methylbenzonitrile], the IC50 (on KRAS G12C; in test [1]) was at most 0.1 µM each time.

For the compound `CC#CC(=O)N1CC[C@H](n2nnc3c(OC[C@@H]4CCCN4C)nc4c(F)c(-c5cccc(C#N)c5C)c(Cl)cc4c32)C[C@H]1CC#N` [Example 96, 3-(1-((2S,4S)-1-(but-2-ynoyl)-2-(cyanomethyl)piperidin-4-yl)-8-chloro-6-fluoro-4-(((S)-1-methylpyrrolidin-2-yl)methoxy)-1H-[1,2,3]triazolo[4,5-c]quinolin-7-yl)-2-methylbenzonitrile], the IC50 (at KRAS G12C; in test [1]) was at most 0.1 µM each time.

Take `Cc1c(C#N)cccc1-c1c(Cl)cc2c(nc(OC[C@@H]3CCCN3C)c3nnn([C@H]4CCN(C(=O)/C=C/CN(C)C)[C@H](CC#N)C4)c32)c1F` [Example 97, 3-(8-chloro-1-((2S,4S)-2-(cyanomethyl)-1-((E)-4-(dimethylamino)but-2-enoyl)piperidin-4-yl)-6-fluoro-4-(((S)-1-methylpyrrolidin-2-yl)methoxy)-1H-[1,2,3]triazolo[4,5-c]quinolin-7-yl)-2-methylbenzonitrile]: the IC50 (at KRAS G12C; in test [1]) was at most 0.1 µM each time.

With `C=CC(=O)N1CC[C@H](n2nnc3c(OC[C@@H]4CCCN4C)nc4c(F)c(-c5cccc(Cl)c5C)c(C)cc4c32)C[C@H]1CC#N` [Example 98, 2-((2S,4S)-1-acryloyl-4-(7-(3-chloro-2-methylphenyl)-6-fluoro-8-methyl-4-(((S)-1-methylpyrrolidin-2-yl)methoxy)-1H-[1,2,3]triazolo[4,5-c]quinolin-1-yl)piperidin-2-yl)acetonitrile], the IC50 (on KRAS G12C; in test [1]) was at most 0.1 µM in each case.

Regarding `CC#CC(=O)N1CC[C@H](n2nnc3c(OC[C@@H]4CCCN4C)nc4c(F)c(-c5cccc(Cl)c5C)c(C)cc4c32)C[C@H]1CC#N` [Example 99, 2-((2S,4S)-1-(but-2-ynoyl)-4-(7-(3-chloro-2-methylphenyl)-6-fluoro-8-methyl-4-(((S)-1-methylpyrrolidin-2-yl)methoxy)-1H-[1,2,3]triazolo[4,5-c]quinolin-1-yl)piperidin-2-yl)acetonitrile], the IC50 (on KRAS G12C; in test [1]) was at most 0.1 µM throughout.

For the compound `COC/C=C/C(=O)N1CC[C@H](n2nnc3c(OC[C@@H]4CCCN4C)nc4c(F)c(-c5cccc(Cl)c5C)c(C)cc4c32)C[C@H]1CC#N` [Example 100, 2-((2S,4S)-4-(7-(3-chloro-2-methylphenyl)-6-fluoro-8-methyl-4-(((S)-1-methyl-pyrrolidin-2-yl)methoxy)-1H-[1,2,3]triazolo[4,5-c]quinolin-1-yl)-1-((E)-4-methoxybut-2-enoyl)piperidin-2-yl)acetonitrile], the IC50 (on KRAS G12C; in test [1]) was at most 0.1 µM throughout.

Regarding `C=CC(=O)N1CC[C@H](n2nnc3c(N4CC(C)(N(C)C)C4)nc4c(F)c(-c5cccc(Cl)c5C)c(C)cc4c32)C[C@H]1CC#N` [Example 101, 2-((2S,4S)-1-acryloyl-4-(7-(3-chloro-2-methylphenyl)-4-(3-(dimethylamino)-3-methylazetidin-1-yl)-6-fluoro-8-methyl-1H-[1,2,3]triazolo[4,5-c]quinolin-1-yl)piperidin-2-yl)acetonitrile], the IC50 (on KRAS G12C; in test [1]) was at most 0.1 µM throughout.
